Where two headings read alike, the source gives them in different places.
Legend:
Male Balb/c mice = experiment: Safety / tolerated dose study of compound 4d in healthy mice (blood count, blood chemistry, histopathology); format: in vivo; conditions: for Creatinine / GOT / GPT / Hb / Leukocytes / Platelets: mean ± SD
Method: (§1) An in vivo study was carried out in Male Balb/c mice, each weighing 15-25 g. All mice were purchased from Medical Experimental Research Center (MERC), Mansoura University, Egypt. Mice were acclimatized for one week in the new animal care facility, at the Zoology Department, Mansoura University, Egypt, under specific pathogen-free (SPF) conditions, and provided with conventional food and drinking water before the study. All animal experiments were carried out following the guidelines of the faculty of Science, Mansoura University, Egypt.
The lethal dose of compound 4d was evaluated according to standard Dose-Probing Tests. Mice were divided into groups of three for evaluating the LD50. Each group received either a different concentration of compound 4d (ranging from 10 ng/Kg to 200 mg/Kg), in corn oil, or the solvent 10% DMSO in corn oil, by intraperitoneal (IP) injection.
The weight and physical symptoms of the mice were monitored for 14 days. After that, all groups were sacrificed, and the liver, kidney, heart, and spleen were collected for histological evaluation of the toxicity of compound 4d. Blood was collected from each mouse for evaluation of the effect of compound 4d on liver and kidney function.
(§2) The blood was centrifuged to collect serum or plasma for biochemical analysis. The blood chemistry was evaluated to detect the level of serum alanine aminotransferase (ALT), serum aspartate aminotransferase (liver function test), and serum creatinine (kidney function test). Complete blood count analysis was carried out to detect the effect of compound 4d treatment on blood platelet count, because it has been reported that p53-MDM2 inhibitors cause high grade thrombocytopenia (i.e., decreased numbers of platelets).
(§3) The formalin-fixed liver specimens were embedded in paraffin, and sections were taken and prepared for hematoxylin and Eosin (H&E) staining. The slides were examined for hepatic architecture, degenerative changes, inflammatory changes, hepatocytes necrosis, mitosis, dysplastic changes and malignant transformation. 4 μm thick sections were prepared on coated slides.
In order to evaluate the tolerated dose of compound 4d, mice were intraperitoneally injected with different doses, and physical symptoms were evaluated daily for 14 days. The maximum dose used was 200 mg/kg, because of the solubility limitation in DMSO. DMSO was adjusted to the tolerated dose 10% in corn oil.

[1] = system: CCl4-induced liver cancer; experiment: CCl4-induced liver cancer model: serum liver/kidney markers and H&E histopathology; format: in vivo, mice; design: GPT (ALT) / Creatinine / GOT (AST): unit not given here; conditions: for Creatinine / GOT (AST) / GPT (ALT): serum, mean ± SD; for mitotic activity of liver cells (H&E): CCl4-treated mice
Method: as §1
(§4) Twenty five mice were treated with carbon tetrachloride (CCl4, from LOBA Chemie Pvt Ltd, Mumbai, India, 1:5 in corn oil) twice weekly via IP injection for 24 weeks. After that period of time, mice were distributed evenly into 5 groups of 5 mice. Group 1 was treated with the solvent 10% DMSO; group 2 was treated with a low dose of compound 4d (50 mg/kg/daily) for 14 days; group 3 was treated with a high dose of compound 4d (200 mg/kg) for 6 hours; group 4 was treated with a high dose of compound 4d (200 mg/kg) for 24 hours; and group 5 was treated with a high dose of compound 4d (200 mg/kg) for 48 hours.
At the end of each treatment, all mice were sacrificed, and blood and liver were collected for evaluation. The liver samples were washed in ice cold 1× phosphate buffered saline (PBS), and fixed in 10% buffered formalin till examination.
as §2, §3
An in vivo model was carried out to test the efficacy of compound 4d in treatment of liver cancer by applying two regimens of compound 4d: a single dose of 200 mg/kg and the treated mice were sacrificed after 6, 24 or 48 hours; or a daily dose of 50 mg/kg for 14 days. Liver cancer was induced chemically by CCl4 (1:5 dilution in corn oil, twice per week). […] The liver architecture was disturbed and there were cirrhotic nodules with bridging fibrosis (FIG. 3A).

p53 = experiment: Immunohistochemistry of p53 in liver sections of CCl4-treated mice; format: in vivo
Method: as §4
(§5) The sections were de-paraffinized in xylene, then rehydrated. Endogenous tissue peroxidase was blocked by incubating the slides for 5 minutes in 0.3% hydrogen peroxide. Antigen retrieval was done by heating the sections in citrate buffer, at pH 6.0, in a microwave. Then, the sections were incubated with monoclonal mouse p53 (clone DO-7, Dako, USA), rabbit polyclonal caspase 3 antibody (CPP32) Ab-4 (ThermoScientific), or with monoclonal mouse Ki-67 antigen (clone MIB-1, Dako, USA).
(§6) The slides were counterstained with hematoxylin and then dehydrated in alcohol and cleared xylene. The immunohistochemical and pathological changes were examined by light microscopy (binocular, Olympus). Images were taken using a digital camera (Canon, 5 mega pixels, at 3.2× optical zoom). […]

caspase 3 = experiment: Immunohistochemistry of caspase 3 in liver sections of CCl4-treated mice; format: in vivo; conditions: low dose daily for 14 days or high dose for 48 hours
Method: as §4, §5, §6

Ki-67 = experiment: Immunohistochemistry of Ki-67 in hepatocytes of CCl4-treated mice; format: in vivo; conditions: low (daily dose for 14 days) or high dose (single dose)
Method: as §4
The sections were de-paraffinized in xylene, then rehydrated. Endogenous tissue peroxidase was blocked by incubating the slides for 5 minutes in 0.3% hydrogen peroxide. Antigen retrieval was done by heating the sections in citrate buffer, at pH 6.0, in a microwave. […]
The statistical analysis was done using the software SPSS 19 for Microsoft Windows (SPSS Inc, Chicago, Illinois). A quantitative analysis of the number of hepatocytes with positive nuclear Ki-67 staining were tested using a one-way analysis of variance (ANOVA), with Duncan's multiple comparisons of the means to compare difference between means.
The level of proliferative Ki-67 marker was evaluated using immunohistochemistry. […]

HCT-116 = experiment: Anticancer potency and ligand efficiency scores, HCT-116; format: cell-based; conditions: Homo sapiens
Excerpt: (§7) LE is used to measure the efficiency of compounds and determine binding affinity (in terms of binding energy or pIC50) in relation to the number of heavy atoms in a molecule. This provides a way to compare the affinity of molecules corrected for their size.
(§8) LE represents the ratio of the affinity of a ligand divided by the number of heavy (non-hydrogen) atoms in the molecule (LE=ΔG/[number of heavy atoms. LE can be calculated according to the following equation: LE=(plC50×1.37)/NHA • where: • IC50=half-maximal inhibitory concentration (in term of molar concentration). • NHA=non-hydrogen atom. The recommended LE value for lead-likeness should be in the range of 0.3. The acceptable LE value for drug-likeness should be higher than 0.3.
(§9) LLE can be calculated as follows: LLE=pIC50−C log P

HepG2 = experiment: Anticancer potency and ligand efficiency scores, HepG2; format: cell-based; conditions: Homo sapiens
Excerpt: as §7, §8, §9

PC-3 = experiment: Anticancer potency and ligand efficiency scores, PC-3; format: cell-based; conditions: Homo sapiens
Excerpt: as §7, §8, §9

[2] = Lipophilicity (log K as surrogate for log P); format: physicochemical
Method: An LLE value≥3 for a lead compound is acceptable, and for a drug candidate LLE value ≥5 is recommended. To get more accurate results, log P was calculated practically, and Log K was measured as indicator and surrogate for log p.

[3] = system: colon, liver and prostate cancer; conditions: anticancer activity against colon; cited from earlier work
colon cancer cells = conditions: cited from earlier work
[4] = healthy mice, IP, 50 mg/kg/14 d
[5] = healthy mice, IP, 200 mg/kg/24 hrs
[6] = healthy mice, IP, 200 mg/kg/48 hrs

With O=C(/C=C/c1ccc(Cl)cc1Cl)[C@H]1[C@H](c2ccc(Cl)cc2Cl)[C@H]2CSCN2[C@]12C(=O)Nc1ccccc12 [Compound 4d, (3R,6′S,7′R,7a′S)-7′-(2,4-dichlorophenyl)-6′-((E)-3-(2,4-dichlorophenyl)acryloyl)-1′,6′,7′,7a′-tetrahydro-3′H-spiro[indoline-3,5′-pyrrolo[1,2-c]thiazol]-2-one] the “change in the behavior, feeding or drinking of the mice” value (Male Balb/c mice; IP, doses up to 200 mg/kg, observed daily for 14 days) was “did not cause any change”, the Creatinine (Male Balb/c mice; [4]) was 0.49 ± 0.21 and the GOT (Male Balb/c mice; [4]) was 281.0 ± 231.9. For the same compound, the GPT (Male Balb/c mice; [4]) was 486.6 ± 339.9, the Hb (Male Balb/c mice; [4]) was 10.16 ± 1.1 and the Leukocytes (Male Balb/c mice; [4]) was 12.5 ± 6.9. It also gave a Platelets (Male Balb/c mice; [4]) of 433.0 ± 304.6, a Creatinine (Male Balb/c mice; [5]) of 0.67 ± 0.24 and a GOT (Male Balb/c mice; [5]) of 129.6 ± 56.5. It also gave a GPT (Male Balb/c mice; [5]) of 498.0 ± 228.8, a Hb (Male Balb/c mice; [5]) of 10.1 ± 1.43 and a Leukocytes (Male Balb/c mice; [5]) of 10.6 ± 6.9. The Platelets (Male Balb/c mice; [5]) was 519 ± 302.9, the Creatinine (Male Balb/c mice; [6]) was 0.692 ± 0.567 and the GOT (Male Balb/c mice; [6]) was 145.7 ± 198.9. The GPT (Male Balb/c mice; [6]) was 368.0 ± 208.1, the Hb (Male Balb/c mice; [6]) was 10.4 ± 1.78 and the Leukocytes (Male Balb/c mice; [6]) was 13.6 ± 6.4. The Platelets (Male Balb/c mice; [6]) was 407.0 ± 281.6, the “pathological alteration in kidney, heart or spleen” value (Male Balb/c mice; healthy mice, histopathology) was “did not cause any pathological alteration” and the “platelet count (complete blood count)” value (Male Balb/c mice; healthy mice, in words) was “no aberrant or significant change”. The “liver architecture, hematoxylin and eosin staining” value (Male Balb/c mice; healthy mice, treatment for 14 days) was “normal liver architecture without any degenerative changes”, the Creatinine ([1]; CCl4 + 50 mg/kg/14 d) was 0.4120 ± 0.2 and the “GOT (AST)” value ([1]; CCl4 + 50 mg/kg/14 d) was 449.20 ± 109.2. The “GPT (ALT)” value ([1]; CCl4 + 50 mg/kg/14 d) was 2028.6 ± 168, the Creatinine ([1]; CCl4 + 200 mg/kg/6 hrs) was 0.4560 ± 0.1823 and the “GOT (AST)” value ([1]; CCl4 + 200 mg/kg/6 hrs) was 3419.00 ± 130.5. For the same compound, the “GPT (ALT)” value ([1]; CCl4 + 200 mg/kg/6 hrs) was 3430.4 ± 137.48, the Creatinine ([1]; CCl4 + 200 mg/kg/24 hrs) was 0.4860 ± 0.17 and the “GOT (AST)” value ([1]; CCl4 + 200 mg/kg/24 hrs) was 1161.00 ± 108.5. The “GPT (ALT)” value ([1]; CCl4 + 200 mg/kg/24 hrs) was 2209.0 ± 132.8, the Creatinine ([1]; CCl4 + 200 mg/kg/48 hrs) was 0.4660 ± 0.16 and the “GOT (AST)” value ([1]; CCl4 + 200 mg/kg/48 hrs) was 208.40 ± 9.32. For the same compound, the “GPT (ALT)” value ([1]; CCl4 + 200 mg/kg/48 hrs) was 961.6 ± 15.96, the “mitotic activity of liver cells (H&E)” value ([1]; daily dose of 50 mg/kg for 14 days) was “no mitotic activity” and the “mitotic activity of liver cells (H&E)” value ([1]; single dose of 200 mg/kg, after 6 hours) was 1 /10 H.P.F. For the same compound, the “mitotic activity of liver cells (H&E)” value ([1]; single dose of 200 mg/kg, longer incubation (24 hours)) was 1 /10 H.P.F, the “mitotic activity of liver cells (H&E)” value ([1]; single dose of 200 mg/kg, two days (48 hours)) was 2 /10 H.P.F and the “level of p53 in liver sections” value (p53; daily dose of 50 mg/kg for 14 days, versus mice only treated with CCl4) was “higher levels of detected p53”. For the same compound, the “activation of p53 in liver sections” value (p53; single dose of 200 mg/kg for 6, 24 or 48 hours) was “time-dependent activation of p53”, the “level of caspase 3 in liver sections” value (caspase 3) was “induced the activation of caspase 3” and the “number of Ki-67 nuclear stained hepatocytes” value (Ki-67) was “significantly increased”. It also gave an IC50 (HCT-116; read-out: HCT-116 (unnamed value under the cell line head)) of 2000 nM, an IC50 (HCT-116; read-out: pIC50 (converted)) of 2040 nM and an IC50 (HepG2; read-out: HepG2 (unnamed value under the cell line head)) of 850 nM. For the same compound, the IC50 (HepG2; read-out: IC50 (converted)) was 851 nM, the IC50 (PC-3; read-out: PC-3 (unnamed value under the cell line head)) was 1800 nM and the IC50 (PC-3; read-out: pIC50 (converted)) was 1820 nM. For the same compound, the “log K” value [2] was 1.19, the selectivity index [3] was “greater than 2” and the “apoptosis (Bcl-2 inhibition, Bax activation)” value (colon cancer cells) was “induction of apoptosis”. The “colony formation and wound healing” value (colon cancer cells; treated colon cancer cells) was “inhibited colony formation, and wound healing”, the p21 gene expression (colon cancer cells; treated colon cancer cells) was “overexpression of cell cycle inhibitor p21 gene” and the p53 activation (colon cancer cells; treated colon cancer cells) was “activation of p53”.
